Values quoted from earlier work as cited in patent US10253031B2, “Stable pemetrexed arginine salt and compositions comprising it” (SYNTHON B.V., priority 2013, dated 2019).
Counter-ions that a name gives are not always drawn.

Conditions: background statement

Row | Compound | Solubility in water
1 | Nc1nc2[nH]cc(CCc3ccc(C(=O)N[C@@H](CCC(=O)O)C(=O)O)cc3)c2c(=O)[nH]1 [pemetrexed diacid, N-[4-[2-(2-amino-4,7-dihydro-4-oxo-1H-pyrrolo [2,3-d]pyrimidin-5-yl)ethyl]benzoyl]-L-glutamic acid] | sparingly soluble
2 | Nc1nc2[nH]cc(CCc3ccc(C(=O)N[C@@H](CCC(=O)O)C(=O)O)cc3)c2c(=O)[nH]1 [Disodium salt of pemetrexed] | soluble in water
